Measurements published in patent US9718774B2, “Indole carboxamide derivatives as P2X7 receptor antagonist” (ACTELION PHARMACEUTICALS LTD, priority 2012, dated 2017).

Biological target: T1, human recombinant P2X7 receptor (Homo sapiens, UniProt Q99572)
T1 construct: expressed in transfected cells
T1 sequence (Q99572 1-595): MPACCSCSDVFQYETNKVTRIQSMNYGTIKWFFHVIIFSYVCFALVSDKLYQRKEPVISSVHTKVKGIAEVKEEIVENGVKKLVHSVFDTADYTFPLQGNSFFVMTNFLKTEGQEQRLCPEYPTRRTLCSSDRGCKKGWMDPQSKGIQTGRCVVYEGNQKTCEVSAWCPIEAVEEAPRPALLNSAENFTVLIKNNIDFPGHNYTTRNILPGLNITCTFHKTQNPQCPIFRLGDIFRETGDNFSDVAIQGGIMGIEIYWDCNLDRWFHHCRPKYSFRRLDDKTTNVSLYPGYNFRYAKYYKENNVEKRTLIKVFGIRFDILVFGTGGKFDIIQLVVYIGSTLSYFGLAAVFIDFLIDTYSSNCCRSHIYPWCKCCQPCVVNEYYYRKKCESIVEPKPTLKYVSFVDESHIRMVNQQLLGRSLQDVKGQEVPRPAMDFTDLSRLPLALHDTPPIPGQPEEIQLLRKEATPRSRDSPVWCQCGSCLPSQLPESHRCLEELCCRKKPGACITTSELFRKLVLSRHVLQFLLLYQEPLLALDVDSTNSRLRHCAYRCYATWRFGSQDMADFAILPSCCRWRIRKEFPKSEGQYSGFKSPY
Assay: YO-PRO assay: P2X7 receptor antagonistic activity in HEK cells stably expressing P2X7
Format: cell-based
Conditions: antagonistic activity with respect to the P2X7 receptor, read-out: IC50
Protocol: The P2X7 receptor antagonistic activity of the compounds of formula (I) is determined in accordance with the following experimental method.
Cell Line Generation and YO-PRO Assay
Cell line generation was performed in general according to established molecular cloning protocols. Specifically, RNA was extracted from human whole blood using the Qiagen RNeasy kit (Qiagen, CH) according to the manufacturer's instructions. Subsequently cDNA was made (Superscript II, Invitrogen AG, CH) and the human P2X7 gene (genbank ref. BC011913) was amplified with the following primers: […] and […]. The amplified sequence was subsequently ligated into a pcDNA3.1 (+) NotI, NheI digested plasmid. Human embryonic kidney (HEK) cells (ATCC CRL—1573, Manassas, Va., USA) were transfected with the pcDNA3.1 (+).hP2X7 plasmid using lipofectamine 2000 (Invitrogen AG, CH) according to the manufacturer's instructions. Following a 24 h exposure to DNA, cells were trypsinized and re-seeded at low density in the presence of 250 μg Geneticin. Geneticin resistant cells were then selected during two consecutive rounds of cloning by serial limiting dilution with visual inspection. Individual clones were screened for P2X7 expression by applying ATP and recording the resultant uptake of YO-PRO1. Specific cell clones were chosen based on RNA and protein expression. HEK cells stably expressing P2X7 were used to screen drugs using the YO-PRO1 assay. Cells were grown to confluency in adherent culture at 37° C. in a humidified 5% CO2 incubator (split 1/5 every 3-4 days with DMEM, 10% FCS, 1% Penicillin/Streptomycin, 250 μg/ml Geneticin). Adherent cells were detached by incubation with Trypsine (1 ml per 165 cm^2 dish) for 2 minutes, then washed off with 10 ml PBS (without Mg^2+ and Ca^2+), and resuspended in DMEM, 10% FCS, 1% Penicillin/Streptomycin, no Geneticin. 10′000 cells per well (48 hours before the assay) or 25′000 cells per well (Vi-cell XR (Beckman Coulter) (24 hours before the assay) in 50 μl full medium were seeded on 384-well black-wall, clear bottom plates, that were coated before with 10 μl per well Poly-L-Lysine, incubated for 30-60 minutes at 37° C. and washed once with PBS. Medium was removed from cells and 50 μl of assay buffer containing 0.5 μM YO-PRO-1 was added into the wells. Solutions of antagonist compounds were prepared by serial dilutions of a 10 mM DMSO solution of the antagonist into PBS using a BioMek (Beckman Coulter). Each concentration was performed in duplicate. For IC50 measurements 10 concentration points were measured (10 μM being the highest concentration followed by 9 serial dilution steps 1/3). The cells were incubated with the antagonists of the present invention together with ATP at a final concentration of 250 μM for 90 minutes. During this time period, four time points were taken. Each time point comprised the average of several measurements made within a few seconds. Fluorescence was measured in the FLIPR tetra (Molecular Devices) using the filters appropriate for YO-PRO-1 fluorescence (excitation 485/20, emission 530/25). The FLIPR tetra was equipped with Molecular Devices Screen Works system control software to define and run experimental protocols. […] For IC50 measurements the maximum intensity is plotted against the concentration of compound to determine IC50 values.

Compound | IC50 [nM]
CCN(CC)C(CNC(=O)c1ccc2[nH]ccc2c1Cl)c1cnc(C)nc1 (racemic) [Example 15, rac-4-Chloro-1H-indole-5-carboxylic acid [2-diethylamino-2-(2-methyl-pyrimidin-5-yl)-ethyl]-amide] | 85
CC(=O)N1CCC(C(CNC(=O)c2ccc3[nH]ccc3c2Cl)c2cccnc2)CC1 (racemic) [Example 22, rac-4-Chloro-1H-indole-5-carboxylic acid [2-(1-acetyl-piperidin-4-yl)-2-pyridin-3-yl-ethyl]-amide] | 126
O=C(NCC(c1ccc(OC(F)(F)F)cc1)N1CCOCC1)c1ccc2[nH]ccc2c1Cl (racemic) [Example 48, rac-4-Chloro-1H-indole-5-carboxylic acid [2-morpholin-4-yl-2-(4-trifluoromethoxy-phenyl)-ethyl]-amide] | 134
COc1cc(C(=O)NCC(c2cnc(C)nc2)N2CCOCC2)c(F)c2cc[nH]c12 (racemic) [Example 118, rac-4-Fluoro-7-methoxy-1H-indole-5-carboxylic acid [2-(2-methyl-pyrimidin-5-yl)-2-morpholin-4-yl-ethyl]-amide] | 20
Cc1ncc(C(CNC(=O)c2ccc3[nH]ccc3c2Cl)N2CCN(C(=O)OC(C)(C)C)CC2)cn1 (racemic) [Example 89, rac-4-[2-[(4-Chloro-1H-indole-5-carbonyl)-amino]-1-(2-methyl-pyrimidin-5-yl)-ethyl]-piperazine-1-carboxylic acid tert-butyl ester] | 277
Cc1ncc(C(CNC(=O)c2cc(F)c3[nH]ccc3c2F)N2CCOCC2)cn1 (racemic) [Example 117, rac-4,7-Difluoro-1H-indole-5-carboxylic acid [2-(2-methyl-pyrimidin-5-yl)-2-morpholin-4-yl-ethyl]-amide] | 118
O=C(NCC(c1ccnc(O)c1)N1CCCCC1)c1ccc2[nH]ccc2c1Cl (racemic) [Example 74, rac-4-Chloro-1H-indole-5-carboxylic acid [2-(2-hydroxypyridin-4-yl)-2-piperidin-1-yl-ethyl]-amide] | 193
O=C(NCC(c1c(F)cc(F)cc1F)N1CCCCC1)c1ccc2[nH]ccc2c1Cl (racemic) [Example 30, rac-4-Chloro-1H-indole-5-carboxylic acid [2-piperidin-1-yl-2-(2,4,6-trifluoro-phenyl)-ethyl]-amide] | 1300
O=C(NCC(c1ccc(Cl)cc1Cl)N1CCOCC1)c1ccc2[nH]ccc2c1Cl (racemic) [Example 39, rac-4-Chloro-1H-indole-5-carboxylic acid [2-(2,4-dichloro-phenyl)-2-morpholin-4-yl-ethyl]-amide] | 455
Cc1ncc(C(CNC(=O)c2ccc3[nH]ccc3c2Cl)N2CCC(C(=O)OC(C)(C)C)CC2)cn1 (racemic) [Example 75, rac-1-[2-[(4-Chloro-1H-indole-5-carbonyl)-amino]-1-(2-methyl-pyrimidin-5-yl)-ethyl]-piperidine-4-carboxylic acid tert-butyl ester] | 258
O=C(NCC(c1cccnc1)N1CCOCC1)c1ccc2[nH]ccc2c1Cl (racemic) [Example 25, rac-4-Chloro-1H-indole-5-carboxylic acid (2-morpholin-4-yl-2-pyridin-3-yl-ethyl)-amide] | 32
Cc1ncc(C(CNC(=O)c2ccc3[nH]ccc3c2C)N2CCOCC2)cn1 (single isomer, unassigned) [Example 105, 4-Methyl-1H-indole-5-carboxylic acid [2-(2-methyl-pyrimidin-5-yl)-2-morpholin-4-yl-ethyl]-amide] | 20
O=C(NCC(c1ccc(F)cn1)N1CCCCC1)c1ccc2[nH]ccc2c1Cl (racemic) [Example 32, rac-4-Chloro-1H-indole-5-carboxylic acid [2-(5-fluoro-pyridin-2-yl)-2-piperidin-1-yl-ethyl]-amide] | 232
O=C(NCC(c1cncnc1)N1CCOCC1)c1ccc2[nH]ccc2c1Cl (racemic) [Example 26, rac-4-Chloro-1H-indole-5-carboxylic acid (2-morpholin-4-yl-2-pyrimidin-5-yl-ethyl)-amide] | 10
O=C(NCC(c1cnc(C2CC2)nc1)N1CCOCC1)c1ccc2[nH]ccc2c1Cl (racemic) [Example 9, rac-4-Chloro-1H-indole-5-carboxylic acid [2-(2-cyclopropyl-pyrimidin-5-yl)-2-morpholin-4-yl-ethyl]-amide] | 7.7
Cc1ncc(C(CNC(=O)c2ccc3[nH]ccc3c2C)N2CCOCC2)cn1 (racemic) [Example 100, rac-4-Methyl-1H-indole-5-carboxylic acid [2-(2-methyl-pyrimidin-5-yl)-2-morpholin-4-yl-ethyl]-amide] | 19
O=C(NCC(c1ccc(Oc2ccccc2)cc1)N1CCOCC1)c1ccc2[nH]ccc2c1Cl (racemic) [Example 58, rac-4-Chloro-1H-indole-5-carboxylic acid [2-morpholin-4-yl-2-(4-phenoxy-phenyl)-ethyl]-amide] | 102
Cc1ncc(C(CNC(=O)c2ccc3[nH]ccc3c2Cl)N(C)CC(C)C)cn1 (racemic) [Example 86, rac-4-Chloro-1H-indole-5-carboxylic acid [2-(isobutyl-methyl-amino)-2-(2-methyl-pyrimidin-5-yl)-ethyl]-amide] | 280
O=C(NCC(c1ccc(F)cn1)N1CCOCC1)c1ccc2[nH]ccc2c1Cl (racemic) [Example 36, rac-4-Chloro-1H-indole-5-carboxylic acid [2-(5-fluoro-pyridin-2-yl)-2-morpholin-4-yl-ethyl]-amide] | 265
Cc1ncc(C(CNC(=O)c2ccc3[nH]ccc3c2Cl)N2CCCCCC2)cn1 (racemic) [Example 80, rac-4-Chloro-1H-indole-5-carboxylic acid [2-azepan-1-yl-2-(2-methyl-pyrimidin-5-yl)-ethyl]-amide] | 25
Cc1ncc(C(CNC(=O)c2ccc3[nH]ccc3c2Cl)NCC2CCCC2)cn1 (racemic) [Example 84, rac-4-Chloro-1H-indole-5-carboxylic acid [2-(cyclopentylmethyl-amino)-2-(2-methyl-pyrimidin-5-yl)-ethyl]-amide] | 1470
O=C(NCC(c1cncnc1)N1CCCCC1)c1ccc2[nH]ccc2c1Cl (racemic) [Example 27, rac-4-Chloro-1H-indole-5-carboxylic acid (2-piperidin-1-yl-2-pyrimidin-5-yl-ethyl)-amide] | 8.7
CC(C)(C)OC(=O)N1CCC(C(CNC(=O)c2ccc3[nH]ccc3c2Cl)c2cccnc2)CC1 (racemic) [Example 19, rac-4-{2-[(4-Chloro-1H-indole-5-carbonyl)-amino]-1-pyridin-3-yl-ethyl}-piperidine-1-carboxylic acid tent-butyl ester] | 35
Cn1cc(C(CNC(=O)c2ccc3[nH]ccc3c2Cl)N2CCOCC2)cn1 (racemic) [Example 28, rac-4-Chloro-1H-indole-5-carboxylic acid [2-(1-methyl-1H-pyrazol-4-yl)-2-morpholin-4-yl-ethyl]-amide] | 66
